{"source": "paper PMC7483518", "about": "“Destabilizing single chain major histocompatibility complex class I protein for repurposed enterokinase proteolysis” (Scientific Reports, 2020)", "key": {"[1]": {"target": "T1, photo-labile unchained HLA-A*11:01 MHC-I protein (Homo sapiens, UniProt P04439, A114D/D185E/E176A/F33Y/L180Q/S129P/T187R)", "T1 construct": "made in house", "experiment": "Photo-labile unchained MHC-I protein treated with UV, peptides and enterokinase (SDS-PAGE band volume)", "type": "biochemical", "conditions": "for vol: mean Adj. Volume of the 2 replicates; for Batch Mean: mean of the 2 replicates of EZ50kD"}, "[2]": {"tested_on": "HLA-A*11:01 single chain protein", "type": "biochemical, Human", "parameters": "EZ50kDa / EZ50kD (pH 6.2) / EZ50kD (pH 8) / EZ50kD (normalised: EBV1101 = 1, EBV0201 = 0) / EZ50kDa rank: unit not given beside the values", "conditions": "for EZ50kDa: Table 3, EGFR peptide library (n = 177, duplicated), 14 h; for vol: mean Adj. Volume of the 2 replicates; for Batch Mean: mean of the 2 replicates of EZ50kD"}, "[3]": {"target": "photolabile unchained HLA-A*11:01 pMHC-I protein (Homo sapiens, UniProt P04439, A114D/D185E/E176A/F33Y/L180Q/S129P/T187R)", "experiment": "ELISA with photolabile unchained pMHC-I protein and UV irradiation", "type": "binding"}, "[4]": {"conditions": "pH 6.2, 37 °C, enterokinase, Eq. (4)"}, "[5]": {"conditions": "EGFR mutation peptide library and control peptides, HLA-A*11:01, mean, STDEV"}}, "note": "Values joined by “and” are separate entries in the source; they are usually repeats but may differ in a detail not shown here. Identical values can stand only once. Like-named read-outs stand apart in the source and are kept apart here.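 Wherever EZ50kD (pH 6.2) is given: scaled with positive control peptide as 1 and negative control peptide as 0.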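 Wherever EZ50kDa is given: intact 50 kDa band volume scaled with positive control peptide as 1 and negative as 0.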", "data": [{"sequence": "SLLDYVREHK [CS1027]", "values": [{"measurement": "vol", "setting": "[1]", "result": 11075589}, {"measurement": "Batch Mean", "setting": "[1]", "result": -1.466}, {"measurement": "EZ_mean", "setting": "[2]", "result": 0.9134}, {"measurement": "Norm_mean", "setting": "[2]", "result": 1.317}, {"measurement": "EZ50kDa", "setting": "[2]; [4]", "result": "0.811 ± 0.171"}, {"measurement": "vol", "setting": "[2]", "result": 29201845}, {"measurement": "Batch Mean", "setting": "[2]", "result": 0.7556}, {"measurement": "EASY_mean", "setting": "[3]; [5]", "result": 0.7046}]}, {"sequence": "SLLDYVREHKDN [CS1050]", "values": [{"measurement": "vol", "setting": "[1]", "result": 12012525}, {"measurement": "Batch Mean", "setting": "[1]", "result": -2.24}, {"measurement": "EZ50kDa", "setting": "[2]; [4]", "result": "0.0255 ± 0.005"}, {"measurement": "vol", "setting": "[2]", "result": 7574013}, {"measurement": "Batch Mean", "setting": "[2]", "result": 0.08881}, {"measurement": "EASY_mean", "setting": "[3]", "result": 0.2031}]}, {"sequence": "FGSLLDYVREHK [CS1048]", "values": [{"measurement": "vol", "setting": "[1]", "result": 12972708}, {"measurement": "Batch Mean", "setting": "[1]", "result": 0.7597}, {"measurement": "vol", "setting": "[2]", "result": 7729416}, {"measurement": "Batch Mean", "setting": "[2]", "result": 0.09362}, {"measurement": "EASY_mean", "setting": "[3]", "result": 0.1889}]}, {"sequence": "VAIKTSPKANK [EX1018, EGFR exon 19 deletion-derived peptide]", "values": [{"measurement": "vol", "setting": "[1]", "result": 8041509}, {"measurement": "Batch Mean", "setting": "[1]", "result": 0.2261}, {"measurement": "EZ_mean", "setting": "[2]; EASY MHC-I A*11:01, 2019-07-26, mean of the 2 replicates", "result": 0.2216}, {"measurement": "EZ50kDa", "setting": "[2]; [4]", "result": "0.2 and 0.222 ± 0.010"}, {"measurement": "vol", "setting": "[2]", "result": 9218005}, {"measurement": "Batch Mean", "setting": "[2]", "result": 0.1404}, {"measurement": "EASY_mean", "setting": "[3]; […], mean, STDEV", "result": 0.2323}]}, {"sequence": "GSLLDYVREHK [CS1037]", "values": [{"measurement": "vol", "setting": "[1]", "result": 9517473}, {"measurement": "Batch Mean", "setting": "[1]", "result": -1.196}, {"measurement": "EZ_mean", "setting": "[2]", "result": 0.3673}, {"measurement": "EZ50kDa", "setting": "[2]; [4]", "result": "0.367 ± 0.022"}, {"measurement": "vol", "setting": "[2]", "result": 11854307}, {"measurement": "Batch Mean", "setting": "[2]", "result": 0.2216}, {"measurement": "EASY_mean", "setting": "[3]", "result": 0.5397}]}, {"sequence": "MQLMPFGCLLDY [TM1050]", "values": [{"measurement": "vol", "setting": "[1]", "result": 5027054}, {"measurement": "Batch Mean", "setting": "[1]", "result": -0.2574}, {"measurement": "EZ_mean", "setting": "[2]", "result": 0.09599}, {"measurement": "EZ50kDa", "setting": "[2]; [4]", "result": "0.0956 ± 0.004"}, {"measurement": "vol", "setting": "[2]", "result": 8153341}, {"measurement": "Batch Mean", "setting": "[2]", "result": 0.1072}, {"measurement": "EASY_mean", "setting": "[3]", "result": 0.2124}]}, {"sequence": "QLMPFGSLLDY [CS1032]", "values": [{"measurement": "vol", "setting": "[1]", "result": 11215354}, {"measurement": "Batch Mean", "setting": "[1]", "result": -0.05053}, {"measurement": "EZ_mean", "setting": "[2]", "result": 0.8691}, {"measurement": "Norm_mean", "setting": "[2]", "result": 1.167}, {"measurement": "EZ50kDa", "setting": "[2]; [4]", "result": "0.869 ± 0.174"}, {"measurement": "vol", "setting": "[2]", "result": 30217126}, {"measurement": "Batch Mean", "setting": "[2]", "result": 0.787}, {"measurement": "EASY_mean", "setting": "[3]; [5]", "result": 0.7325}]}, {"sequence": "FGRAKLLGA [LR1015]", "values": [{"measurement": "EZ_mean", "setting": "[2]", "result": -0.04617}, {"measurement": "EASY_mean", "setting": "[3]; […], mean, STDEV", "result": -0.02405}]}, {"sequence": "KTSPKANKE [EX1008]", "values": [{"measurement": "EZ_mean", "setting": "[2]; EASY MHC-I A*11:01, 2019-07-25, mean of the 2 replicates", "result": -0.03131}, {"measurement": "EASY_mean", "setting": "[3]; […], mean, STDEV", "result": -0.00166}]}, {"sequence": "SLLDYVREH [CS1017]", "values": [{"measurement": "vol", "setting": "[1]", "result": 10431446}, {"measurement": "Batch Mean", "setting": "[1]", "result": -0.3978}, {"measurement": "EZ_mean", "setting": "[2]; EASY MHC-I A*11:01, 2019-08-01, mean of the 2 replicates", "result": 0.7333}, {"measurement": "EZ MHC-I stability with HLA-A*11:01 single chain protein", "setting": "[2]; Fig. 2f,g, EGFR peptide library", "result": "strongly stabilizing"}, {"measurement": "EZ50kDa", "setting": "[2]; [4]", "result": "0.733 ± 0.140"}, {"measurement": "vol", "setting": "[2]", "result": 26057980}, {"measurement": "Batch Mean", "setting": "[2]", "result": 0.6595}, {"measurement": "EASY_mean", "setting": "[3]", "result": 0.4725}]}, {"sequence": "STIPETTVVR [putative peptide, HBV, no IEDB entry]", "values": [{"measurement": "EZ50kD (pH 6.2)", "setting": "[2]; Table 2, pH 6.2, 37 °C, enterokinase, Eq. (4), instability cutoff < 0.3", "result": 0.3226}, {"measurement": "ELISA450nm", "setting": "[3]; Table 2, 62.5 nM photolabile pMHC-I mixture, 5 μM peptide in PBS, UV 365 nm 2 × 5 min on ice, 2 h room temperature on anti-β2m plate, Abs450nm − Abs570nm, instability cutoff < 0.6", "result": 1.391}]}, {"sequence": "KITDFGRAKL [LR1021]", "values": [{"measurement": "EZ_mean", "setting": "[2]", "result": -0.05252}, {"measurement": "EASY_mean", "setting": "[3]; […], mean, STDEV", "result": -0.0154}]}, {"sequence": "IMQLMPFGCLLD [TM1049]", "values": [{"measurement": "EZ_mean", "setting": "[2]", "result": -0.08186}, {"measurement": "EASY_mean", "setting": "[3]", "result": -0.01469}]}, {"sequence": "FGSLLDYV [CS1006]", "values": [{"measurement": "EZ_mean", "setting": "[2]", "result": -0.06948}, {"measurement": "EASY_mean", "setting": "[3]", "result": -0.03548}]}, {"sequence": "TVQLIMQLMPFG [TM1044]", "values": [{"measurement": "EZ_mean", "setting": "[2]", "result": -0.09806}, {"measurement": "EASY_mean", "setting": "[3]; ELISA signal, mean, […]", "result": -0.03569}]}, {"sequence": "TSTVQLIM [TM1001]", "values": [{"measurement": "EZ_mean", "setting": "[2]; EASY MHC-I A*11:01, run 2019-08-06, 5min, mean of 2 replicates", "result": -0.08359}, {"measurement": "EASY_mean", "setting": "[3]; […], mean, STDEV", "result": -0.02312}]}]}
